Counter-ions that a name gives are not always drawn.
Molecular target: abnormal prion protein (Mus musculus, UniProt P04925)
Assay: cell-based

Chain of abnormal prion protein (P04925 23-230 limits assumed): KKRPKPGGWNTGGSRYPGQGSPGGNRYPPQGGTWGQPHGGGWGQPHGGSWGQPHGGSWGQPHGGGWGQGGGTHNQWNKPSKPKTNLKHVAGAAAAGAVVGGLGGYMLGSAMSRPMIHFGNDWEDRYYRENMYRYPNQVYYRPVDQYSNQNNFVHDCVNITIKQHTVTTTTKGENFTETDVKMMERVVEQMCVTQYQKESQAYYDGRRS

O=C(CN1CCCC1)Nc1ccc(C(c2ccc(NC(=O)CN3CCCC3)cc2)C2CCCCC2)cc1 [maleic acid salt, N,N′-[(cyclohexylmethylene)di-4,1-phenylene]bis[2-(1-pyrrolidinyl)acetamide] maleate]
IC50: 460 ± 200 nM
